Key:
heart [1] = experiment: Effect on heart contractility (maximum dP/dt) of the anesthetized dog; assay type: in vivo
Text: (§1) Effects of Compound I and Ouabain On the Heart Contractility and Rhythmicity of the Anesthetized Dog
(§2) The object of the test was to compare compound I and oubain administered alone and in combination with each other to study the inotropic effect (maximum dP/dt in the left ventricle) and a possibly arrhythmic effect. The latter included an investigation of the ability of the compounds to cause repetitive ventricular response (RVR) when the heart was electrically stimulated via an electrode on the ventricle at the electrically vulnerable phase at the end of the T-wave. Klein et al. (M. Klein, N. S. Nejad, B. Lown, F. Hagemeijer and I. Blair, Circulation Research, 29, 635 (1971)) have shown that digitalis caused RVR at a dose which was about 70% of the dose giving spontaneous ventricular arrhythmias.
(§3) The dog was anesthetized with Mebumal® 30 mg/kg bodyweight i.v. Artificial respiration was applied. The sinus-node was electrocoagulated and the heart frequency was kept constant at 180 beats/minute in each test by electrical pacing of the auricle. Mean arterial blood pressure was registered from the carotis artery. ECG was registered during the test. Further, the pressure in the left ventricle was registered via a catheter inserted through the apex and connected to a pressure transducer. The intraventricular pressure curve was derivated to obtain maximum dP/dt which is a measure of the contractile force of the heart.
(§4) The test was started with a series of control registrations, whereupon the compounds were administered 3 times by infusion during five minutes and with an interval of 50 minutes between each infusion.
(§5) In the experiment with compound I only, the compound was administered in two doses of 10 μg/kg bodyweight and then one dose of 20 μg/kg bodyweight. Ouabain was given in 3 consecutive doses of 20 μg/kg bodyweight. In the combination test ouabain was first given in a dose of 20 μg/kg bodyweight followed by two doses of compound I of 10 and 20 μg/kg bodyweight, respectively.

heart [2] = experiment: Effect on heart chronotropy and inotropy of a conscious dog; conditions: for Enddiastolic volume / Stroke volume / Mean arterial blood pressure / Peak aortic flow / Mean ejection rate / Max. dF/dt: change i.v. at heart frequency +10 beats/min, interpolated, paced; for Enddiastolic volume: calculated from left ventricle diameter; for Stroke volume: methyl scopolamine pretreated; for Mean ejection rate: stroke volume / ejection time; for side effects: I and II 10 and 20 μg/kg; for Max. dF/dt: maximum flow acceleration in aorta
Text: During anesthesia a catheter was introduced in the aorta, an electromagnetic flow probe was placed around the ascending aorta, and induction coils were placed diametrically on the inside of the left ventricle. The experiments were started about 2 weeks after the incision, when the dog had recovered completely.
When the dog was resting, the arterial blood pressure, the flow in the aorta, the maximum flow acceleration in the aorta (maximum dF/dt), heart frequency, the diameter of the left ventricle, and ECG were registered. The effects of compounds I and II were registered at 10, 20, and 30 minutes after administration. […] The compounds were given intravenously in the following doses. […] In order to eliminate vagal influence on the heart the dog was pretreated with methyl scopolamine 0.012 mg/kg bodyweight intramuscularily 20 minutes before the administration of the compounds. From the data giving the diameter of the left ventricle, the end diastolic volume was calculated according to E. W. Hawthorne. Mean ejection rate (ml/sec.) was calculated by dividing the stroke volume with the ejection time. […] The values given are the percentage changes after administration when the heart frequency has increased 10 beats per minute, values interpolated. […] In order to compare the inotropic effects of ouabain with those of the other compounds, the heart was stimulated in these experiments by electric pacing to a frequency which was 10 beats/minute above that registered before administration.
In order to investigate the absorption and duration of the effect, compounds I and II were given orally in an amount of 100 μg/kg bodyweight.

heart [3] = experiment: Repetitive ventricular response (RVR) / spontaneous arrhythmia in the anesthetized dog; assay type: in vivo; conditions: 40 μg/kg bodyweight
Text: as §1, §2, §3, §4, §5

[4] = target: T1, beta-receptors of the heart (Felis catus, UniProt Q9TST6); experiment: Beta-adrenergic (chronotropic, heart frequency) effects on anesthetized cat pretreated with reserpine; assay type: in vivo; conditions: for potency relative to isoprenaline, chronotropic effect: isoprenaline = 1, cat i.v.; for ED50: iv, reserpinized anesthetized cat, i.v., estimated dose giving 50% of maximal effect, read-out: ED50 Heart Frequency
T1 construct: Heart frequency was registered with a cardiotachometer triggered by the ECG; from tissue; host or cells: heart of the anaesthetized cat in vivo (reserpine-pretreated, vagotomized)
T1 sequence (Q9TST6 whole entry): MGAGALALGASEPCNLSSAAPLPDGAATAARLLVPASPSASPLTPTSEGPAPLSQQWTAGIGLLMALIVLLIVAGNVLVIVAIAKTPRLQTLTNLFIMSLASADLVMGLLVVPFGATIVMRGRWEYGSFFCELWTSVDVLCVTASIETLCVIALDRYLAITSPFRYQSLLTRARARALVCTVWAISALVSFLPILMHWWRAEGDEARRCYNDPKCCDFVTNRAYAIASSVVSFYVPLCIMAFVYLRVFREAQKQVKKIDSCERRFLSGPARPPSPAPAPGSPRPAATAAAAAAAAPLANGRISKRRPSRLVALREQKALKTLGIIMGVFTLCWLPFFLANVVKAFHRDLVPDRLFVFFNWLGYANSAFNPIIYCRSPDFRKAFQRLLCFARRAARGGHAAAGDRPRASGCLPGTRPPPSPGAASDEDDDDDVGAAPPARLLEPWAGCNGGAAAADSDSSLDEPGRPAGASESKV
Method: (§6) Chronotropic (heart frequency) and vasodilatating effects:
(§7) When the cats had been anaesthetized with Mebumal® 30 mg/kg bodyweight i.p., an artificial air respiration was started. The two vagus nerves were cut and the blood passing through a femoral artery was fed via a catheter and a pump back to the distal part of the vessel. Parallelly, a pressure transducer was connected by which the perfusion pressure was registered. At a perfusion with a constant flow, the perfusion pressure is directly proportional to the peripheral resistance of the vascular bed of the hind limb. Blood circulation in the foot was interrupted with a ligature. Heart frequency was registered with a cardiotachometer triggered by the ECG. The substances were administered intravenously in increasing doses and the dose-response curves of the heart frequency and the vasodilatation were constructed.
(§8) Further, the dose ratios (ED50 for vasodilatation/ED50 for heart frequency) are calculated. A dose ratio >1 indicates a heart selective effect.

[5] = system: beta-receptors of the heart; experiment: as above; assay type: in vivo
Method: as §6, §7, §8

[6] = target: T2, beta-receptors of the blood vessels (Felis catus, UniProt Q9TST5); experiment: Vasodilatating effect (hind limb perfusion pressure) on anesthetized cat pretreated with reserpine; assay type: in vivo; conditions: iv; reserpinized anesthetized cat, i.v.; estimated dose giving 50% of maximal effect; read-out: ED50 Vasodilation
T2 construct: from tissue; host or cells: hind-limb vascular bed of the anaesthetized cat in vivo (constant-flow perfusion, reserpine-pretreated)
T2 sequence (Q9TST5 whole entry, the tested form may be a part): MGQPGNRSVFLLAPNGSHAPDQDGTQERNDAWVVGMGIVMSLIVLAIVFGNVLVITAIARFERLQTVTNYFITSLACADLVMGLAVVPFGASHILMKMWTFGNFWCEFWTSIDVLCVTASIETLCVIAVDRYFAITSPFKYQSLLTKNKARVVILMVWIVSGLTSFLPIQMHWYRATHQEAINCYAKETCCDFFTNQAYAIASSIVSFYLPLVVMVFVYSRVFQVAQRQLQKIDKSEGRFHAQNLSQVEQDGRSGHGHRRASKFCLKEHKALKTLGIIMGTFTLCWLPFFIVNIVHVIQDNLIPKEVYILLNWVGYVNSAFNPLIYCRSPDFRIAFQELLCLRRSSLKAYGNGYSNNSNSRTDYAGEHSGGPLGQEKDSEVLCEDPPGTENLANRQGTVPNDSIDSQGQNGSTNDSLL
Method: as §6, §7, §8

heart [7] = experiment: Ventricular arrhythmia in dogs after two-stage ligation of the left anterior coronary artery (third day post infarction); assay type: in vivo, dog; conditions: 1-norepinephrine 20 μg/kg/min infusion, 120 minutes
Method: Harris, A. S. Delayed Development of Ventricular Ectopic Rhythms following Coronary Occlusion, Cir. l, p 1318, (1950) described a method of two-stage ligation of the left anterior coronary artery in the dog. This method produces a multifocal ventricular arrhythmia that generally remains persistent on the first post ligation day (day 1-24 hours post infarct). The arrhythmia slowly disappears, and by the third post-ligation day the animal has essentially a normal sinus rhythm.
Maling, H. M. and Moran, N. C., Ventricular Arrhythmias Induced by Sympathominetic Amines in Unanesthetized Dogs Following Coronary Artery Occlussion, Cir.
METHODS, MATERIALS AND EXPERIMENTAL DESIGN
Seventeen adult female beagle dogs were used. Their ages ranged from one to three years. These animals were divided into two groups.
The first group consisted of 12 dogs and served as a control group. All animals were subjected to a two-stage ligation of the left anterior coronary artery. On the first post operative day these twelve animals were given various experimental antiarrhythmic agents as part of a routine testing procedure. It should be noted that, due to the nature of these agents, there would be no test drug or only trace amounts of test drug in the blood on day 3, and these amounts would cause little or no change on the outcome of a third day test. It should also be noted that all twelve of these animals has at least 85% ventricular ectopic beats on the morning after surgery in order to be accepted for testing.
On the third day post infarction the dogs were suspended in a standing position in a canvas sling. No anesthesia or sedation was used. ECGs were recorded as well as blood pressure. After a control period, an infusion of 20 μg/kg min. of 1-norepinephrine was begun using a Harvard infusion/withdrawal pump. This infusion lasted 120 minutes.
These five animals were all subjected to a two stage ligation of the anterior descending coronary artery. On day 1 and day 2 each dog was suspended in a canvas sling in the standing position and ECG, blood pressure, and other physiologic measurements were taken. […]

[8] = 20 minutes after administration, ouabain versus compound I
[9] = anesthetized dog, i.v. infusion
[10] = conscious dog, ouabain 30 μg/kg i.v.
[11] = dose ratio >1 indicates a heart selective effect

What does the source list for `C[C@@H]1O[C@@H](O[C@H]2C[C@@H](O)[C@]3(CO)[C@H]4[C@H](O)C[C@]5(C)[C@@H](C6=CC(=O)OC6)CC[C@]5(O)[C@@H]4CC[C@]3(O)C2)[C@H](O)[C@H](O)[C@H]1O` [Ouabain, reference compound]?
increase of aortic blood pressure (heart [1]; 20 minutes after administration): about 10 mm Hg; doses giving approximately the same level of maximum dP/dt (lower pair) (heart [1]; [8]): ~20 μg/kg bodyweight; doses giving corresponding effect on maximum dP/dt (higher pair) (heart [1]; [8]): 40 μg/kg bodyweight; effect on maximum dP/dt (in words) (heart [1]; [9]): increased maximum dP/dt; onset of effect on maximum dP/dt (heart [1]; [9]): within a minute; reduction of effect on maximum dP/dt after 50 minutes (heart [1]; [9]): only partly reduced after 50 minutes; time to maximal effect on maximum dP/dt (heart [1]; [9]): about 20 minutes; Enddiastolic volume (heart [2]; ouabain 30 μg/kg i.v.): -2%; Stroke volume (heart [2]; ouabain 30 μg/kg i.v.): 5%; Mean arterial blood pressure (heart [2]; ouabain 30 μg/kg i.v.): 10 mm Hg; Peak aortic flow (heart [2]; ouabain 30 μg/kg i.v.): 12%; Mean ejection rate (heart [2]; ouabain 30 μg/kg i.v.): 10%; heart frequency (in words) (heart [2]; [10]): expected decrease of the heart frequency; side effects (heart [2]; [10]): vomiting; Max. dF/dt (heart [2]; ouabain 30 μg/kg i.v.): 30%; time of maximum response after i.v. administration (heart [2]; ouabain 30 μg/kg i.v.): about 50 minutes; experiments with RVR (heart [3]): more than 50%

For `CC(C)NCC(O)COc1ccc(OC(=O)C(C)C)cc1` (centres unmarked) [II, 1-isopropylamino-3-(p-isobutyryloxyphenoxy)-propanol-2], which “potency relative to isoprenaline, chronotropic effect” value [4] is on record?
The value was “about 1/100”.

And the ED50 [4]?
The ED50 was 0.006 mg/kg.

And the “Selectivity: ED50 Vasodilatation / ED50 Heart Frequency” value [5, 11]?
Its value is > 100.

And the “time of maximum effect, oral” value (heart [2]; 100 μg/kg bodyweight orally)?
The value was 30 min.

What about the Enddiastolic volume (heart [2]; ouabain 30 μg/kg i.v.) of the same compound?
Its Enddiastolic volume is -8%.

What about the Stroke volume (heart [2]; ouabain 30 μg/kg i.v.) of the same compound?
Its Stroke volume is 5%.

What about the “Mean arterial blood pressure” value (heart [2]; ouabain 30 μg/kg i.v.) of the same compound?
Its value is 0 mm Hg.

What about the Peak aortic flow (heart [2]; ouabain 30 μg/kg i.v.) of the same compound?
The Peak aortic flow was 19%.

And the Mean ejection rate (heart [2]; ouabain 30 μg/kg i.v.)?
The Mean ejection rate was 11%.

And the side effects (heart [2]; [10])?
The side effects was “No side effect was observed”.

And the “Max. dF/dt” value (heart [2]; ouabain 30 μg/kg i.v.)?
The value was 34%.

What about the “oral effect (in words)” value (heart [2]; oral, 100 μg/kg bodyweight) of the same compound?
Its value is “comparable with those obtained after intravenous administration of 20 μg/kg bodyweight”.

And the “positive inotropic effect compared with ouabain (in words)” value (heart [2]; versus relatively high dose of ouabain)?
The value was “comparable to the effect of the relatively high dose of ouabain”.

What about the ED50 [6] of the same compound?
Its ED50 is > 1 mg/kg.

For `CC(C)NCC(O)COc1ccc(OC(=O)C(C)(C)C)cc1` (centres unmarked) [IV, 1-isopropylamino-3-(p-pivaloyloxyphenoxy)-propanol-2], which ED50 [4] is on record?
Its ED50 is 0.06 mg/kg.

What about the “Selectivity: ED50 Vasodilatation / ED50 Heart Frequency” value ([5]; in vivo) of the same compound?
Its value is > 15.

What about the ED50 [6] of the same compound?
Its ED50 is > 1 mg/kg.

Which Enddiastolic volume (heart [2]; ouabain 30 μg/kg i.v.) does the source give for `CC(C)NCC(O)c1ccc(O)c(O)c1` (centres unmarked) [Isoprenaline, reference compound] here?
Its Enddiastolic volume is -2%.

What about the “Mean arterial blood pressure” value (heart [2]; ouabain 30 μg/kg i.v.) of the same compound?
The value was -10 mm Hg.

What about the Peak aortic flow (heart [2]; ouabain 30 μg/kg i.v.) of the same compound?
Its Peak aortic flow is 19%.

What about the “mean blood pressure (in words)” value (heart [2]; conscious dog, infusion) of the same compound?
Its value is “decreased the mean blood pressure”.

What about the “contractility / inotropic effect in conscious dog (in words)” value (heart [2]; i.v.) of the same compound?
Its value is “increased the contractility less than compounds I and II”.

For `CC(C)NCC(O)COc1ccc(OC(=O)c2ccccc2)cc1` (centres unmarked) [III, 1-isopropylamino-3-(p-benzoyloxyphenoxy)-propanol-2], which “potency relative to isoprenaline, chronotropic effect” value [4] is on record?
Its value is “about 1/100”.

What about the ED50 [4] of the same compound?
The ED50 was 0.01 mg/kg.

And the “Selectivity: ED50 Vasodilatation / ED50 Heart Frequency” value [5, 11]?
Its value is > 100.

What about the ED50 [6] of the same compound?
The ED50 was > 1 mg/kg.

How did the “duration of substantially high incidence of ectopic activity” value (heart [7]) turn out when `NC[C@H](O)c1ccc(O)c(O)c1` [norepinephrine, reference compound] was run?
Its value is “at least 90 minutes”.

Reference: US4080471A, “Use of substituted isopropylaminopropanols for inducing inotropic effects of the human heart” (priority 1976, dated 1978)
